Values of other authors in PubChem BioAssay AID1259409 (Chemical Carcinogenesis Research Information System (CCRIS), 2018).

Test system: rodent chemically induced tumor inhibition, incidence and multiplicity
Assay: CCRIS tumor inhibitor studies
Conditions: Carcinogen: 7,12-DIMETHYLBENZ[A]ANTHRACENE, 57-97-6, Route [Inhibitor]: ORAL, Promoter: NONE USED

O=[Se](O)O
tumour outcome (control, treated, inhibition, significance) (Dose [Inhibitor]: 1 PPM IN DIET DAILY STARTING 1 WK PRIOR TO CARCINOGEN TREATMENT AND CONTINUING FOR DURATION OF STUDY (STUDY DURATION: 9, Species: MOUSE, Strain/Sex: BD2F1/FEMALE, Target Tissue: Type of Lesion: MAMMARY GLAND: TUMOR, Dose [Carcinogen]: 1 MG IN 0.2 ML COTTONSEED OIL 1/WK FOR 6 WK STARTING AT 8 WK OF AGE): 18/32 (56%), 8/32 (25%), 55%, not calculated | tumour outcome (control, treated, inhibition, significance) (Dose [Inhibitor]: 1.5 PPM IN 5% CORN OIL DIET DAILY STARTING 29 D BEFORE CARCINOGEN TREATMENT AND CONTINUING FOR DURATION OF STUDY (STUDY, Species: RAT, Strain/Sex: SPRAGUE-DAWLEY/FEMALE, Target Tissue: Type of Lesion: MAMMARY GLAND: ADENOCARCINOMA, Dose [Carcinogen]: 5 MG IN CORN OIL ONCE AT 50 D OF AGE): 12/30 (40%), 9/31 (29%), 28%, not significant | tumour outcome (control, treated, inhibition, significance) (Dose [Inhibitor]: 1.5 PPM IN 25% CORN OIL DIET DAILY STARTING 29 D BEFORE CARCINOGEN TREATMENT AND CONTINUING FOR DURATION OF STUDY (STUDY, Species: RAT, Strain/Sex: SPRAGUE-DAWLEY/FEMALE, Target Tissue: Type of Lesion: MAMMARY GLAND: ADENOCARCINOMA, Dose [Carcinogen]: 5 MG IN CORN OIL ONCE AT 50 D OF AGE): 21/30 (70%), 16/29 (55%), 21%, not significant | tumour outcome (control, treated, inhibition, significance) (Dose [Inhibitor]: 2 PPM IN DIET DAILY STARTING 1 WK PRIOR TO CARCINOGEN TREATMENT AND CONTINUING FOR DURATION OF STUDY (STUDY DURATION: 9, Species: MOUSE, Strain/Sex: BALB/FEMALE, Target Tissue: Type of Lesion: MAMMARY GLAND: TUMOR, Dose [Carcinogen]: 1 MG IN 0.2 ML COTTONSEED OIL 1/WK FOR 6 WK STARTING AT 8 WK OF AGE): 11/28 (39%), 2/28 (7%), 82%, not calculated | tumour outcome (control, treated, inhibition, significance) (Dose [Inhibitor]: 2 PPM IN DIET DAILY STARTING 1 WK PRIOR TO CARCINOGEN TREATMENT AND CONTINUING FOR DURATION OF STUDY (STUDY DURATION: 9, Species: MOUSE, Strain/Sex: BD2F1/FEMALE, Target Tissue: Type of Lesion: MAMMARY GLAND: TUMOR, Dose [Carcinogen]: 1 MG IN 0.2 ML COTTONSEED OIL 1/WK FOR 6 WK STARTING AT 8 WK OF AGE): 18/32 (56%), 5/32 (16%), 71%, not calculated | tumour outcome (control, treated, inhibition, significance) (Dose [Inhibitor]: 2.5 MG/KG DIET DAILY STARTING 2 WK BEFORE CARCINOGEN TREATMENT AND CONTINUING FOR DURATION OF STUDY (STUDY DURATION: 26, Species: RAT, Strain/Sex: SPRAGUE-DAWLEY/FEMALE, Target Tissue: Type of Lesion: MAMMARY GLAND: ADENOCARCINOMA, Dose [Carcinogen]: 10 MG ONCE AT 50 D OF AGE): 23/25 (92%), 18/25(72%), 22%, not significant | tumour outcome (control, treated, inhibition, significance) (Dose [Inhibitor]: 2.5 MG/KG DIET DAILY STARTING 2 WK BEFORE CARCINOGEN TREATMENT AND CONTINUING FOR DURATION OF STUDY (STUDY DURATION: 27, Species: RAT, Strain/Sex: SPRAGUE-DAWLEY/FEMALE, Target Tissue: Type of Lesion: MAMMARY GLAND: ADENOCARCINOMA, Dose [Carcinogen]: 10 MG ONCE AT 50 D OF AGE): 28/30 (93%), 23/30(77%), 17%, not significant | tumour outcome (control, treated, inhibition, significance) (Dose [Inhibitor]: 2.5 PPM IN 5% CORN OIL DIET DAILY STARTING 29 D BEFORE CARCINOGEN TREATMENT AND CONTINUING FOR DURATION OF STUDY (STUDY, Species: RAT, Strain/Sex: SPRAGUE-DAWLEY/FEMALE, Target Tissue: Type of Lesion: MAMMARY GLAND: ADENOCARCINOMA, Dose [Carcinogen]: 5 MG IN CORN OIL ONCE AT 50 D OF AGE): 12/30 (40%), 7/29 (24%), 40%, not significant | tumour outcome (control, treated, inhibition, significance) (Dose [Inhibitor]: 2.5 PPM IN 5% CORN OIL DIET DAILY STARTING 29 D BEFORE CARCINOGEN TREATMENT AND CONTINUING FOR DURATION OF STUDY (STUDY, Species: RAT, Strain/Sex: SPRAGUE-DAWLEY/FEMALE, Target Tissue: Type of Lesion: MAMMARY GLAND: ADENOCARCINOMA, Dose [Carcinogen]: 10 MG IN CORN OIL ONCE AT 50 D OF AGE): 21/30 (70%), 13/29 (45%), 36%, p<0.05 | tumour outcome (control, treated, inhibition, significance) (Dose [Inhibitor]: 2.5 PPM IN 5% CORN OIL DIET DAILY STARTING AT WEANING AND CONTINUING FOR DURATION OF STUDY (STUDY DURATION: 25 WK), Species: RAT, Strain/Sex: SPRAGUE-DAWLEY/FEMALE, Target Tissue: Type of Lesion: MAMMARY GLAND: ADENOCARCINOMA, Dose [Carcinogen]: 5 MG ONCE AT AGE 50 D): 40%, 24%, 40%, not calculated | tumour outcome (control, treated, inhibition, significance) (Dose [Inhibitor]: 2.5 PPM IN 25% CORN OIL DIET DAILY STARTING 29 D BEFORE CARCINOGEN TREATMENT ANDCONTINUING FOR DURATION OF STUDY (STUDY, Species: RAT, Strain/Sex: SPRAGUE-DAWLEY/FEMALE, Target Tissue: Type of Lesion: MAMMARY GLAND: ADENOCARCINOMA, Dose [Carcinogen]: 5 MG IN CORN OIL ONCE AT 50 D OF AGE): 21/30 (70%), 10/30 (33%), 53%, p<0.01 | tumour outcome (control, treated, inhibition, significance) (Dose [Inhibitor]: 2.5 PPM IN 25% CORN OIL DIET DAILY STARTING AT WEANING AND CONTINUING FOR DURATION OF STUDY (STUDY DURATION: 25 WK), Species: RAT, Strain/Sex: SPRAGUE-DAWLEY/FEMALE, Target Tissue: Type of Lesion: MAMMARY GLAND: ADENOCARCINOMA, Dose [Carcinogen]: 5 MG ONCE AT AGE 50 D): 70%, 33%, 53%, not calculated | tumour outcome (control, treated, inhibition, significance) (Dose [Inhibitor]: 2.5 PPM IN HIGH-SATURATED FAT DIET CONTAINING 1% CORN OIL AND 24% HYDROGENATED COCONUT OIL DAILY STARTING AT WEANING AND, Species: RAT, Strain/Sex: SPRAGUE-DAWLEY/FEMALE, Target Tissue: Type of Lesion: MAMMARY GLAND: TUMOR, Dose [Carcinogen]: 5 MG ONCE AT AGE 50 D): 7/25 (28%), 5/25 (20%), 29%, not significant | tumour outcome (control, treated, inhibition, significance) (Dose [Inhibitor]: 2.5 PPM IN HIGH-SATURATED FAT DIET CONTAINING 1% CORN OIL AND 24% HYDROGENATED COCONUT OIL DAILY STARTING AT WEANING AND, Species: RAT, Strain/Sex: SPRAGUE-DAWLEY/FEMALE, Target Tissue: Type of Lesion: MAMMARY GLAND: TUMOR, Dose [Carcinogen]: 10 MG ONCE AT AGE 50 D): 16/25 (64%), 8/24 (33%), 48%, p<0.05 | tumour outcome (control, treated, inhibition, significance) (Dose [Inhibitor]: 4 MG/KG DIET DAILY FOR 28 WK STARTING 2 WK BEFORE START OF CARCINOGEN TREATMENT AND CONTINUING FOR DURATION OF STUDY (ST, Species: RAT, Strain/Sex: SPRAGUE-DAWLEY/FEMALE, Target Tissue: Type of Lesion: MAMMARY GLAND: TUMOR, Dose [Carcinogen]: 5 MG IN CORN OIL 1/WK FOR 3 WK): 90%, 53%, 41%, p<0.01
